Reference: PubChem BioAssay (NCI)
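In this assay, cells in 96-well plates receive the compound at five concentrations for 48 hours. Endpoints are linearly interpolated between the surrounding concentrations. GI50 is the concentration that inhibits growth by half. TGI marks complete inhibition of growth.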

Columns and labels:
Assay in all cases: NCI-60 cell line screen, 48 h
A549 NSCLC = tested on: A549 NSCLC
SNB-75 CNS = tested on: SNB-75 CNS
PC-3 prostate = tested on: PC-3 prostate
UACC-62 melanoma = tested on: UACC-62 melanoma
OVCAR-5 ovarian = tested on: OVCAR-5 ovarian
CAKI-1 renal = tested on: CAKI-1 renal
SN12C renal = tested on: SN12C renal
KM12 colon = tested on: KM12 colon
HS 578T breast = tested on: HS 578T breast
MOLT-4 leukemia = tested on: MOLT-4 leukemia
NCI-H522 lung = tested on: NCI-H522 lung
IGROV1 ovarian = tested on: IGROV1 ovarian
HOP-92 NSCLC = tested on: HOP-92 NSCLC
OVCAR-8 ovarian = tested on: OVCAR-8 ovarian
DU-145 prostate = tested on: DU-145 prostate
SW-620 colon = tested on: SW-620 colon
BT-549 breast = tested on: BT-549 breast
OVCAR-4 ovarian = tested on: OVCAR-4 ovarian
MCF7 breast = tested on: MCF7 breast
OVCAR-3 ovarian = tested on: OVCAR-3 ovarian
SF-268 CNS = tested on: SF-268 CNS
COLO 205 colon = tested on: COLO 205 colon
HCT-15 colon = tested on: HCT-15 colon
A498 renal = tested on: A498 renal
SNB-19 CNS = tested on: SNB-19 CNS
ACHN renal = tested on: ACHN renal
NCI-H23 lung = tested on: NCI-H23 lung
NCI-H460 lung = tested on: NCI-H460 lung
HCC-2998 colon = tested on: HCC-2998 colon
SR leukemia = tested on: SR leukemia
UO-31 renal = tested on: UO-31 renal
SK-MEL-28 melanoma = tested on: SK-MEL-28 melanoma
MDA-MB-231 breast = tested on: MDA-MB-231 breast
NCI/ADR-RES ovarian = tested on: NCI/ADR-RES ovarian
HOP-62 NSCLC = tested on: HOP-62 NSCLC
K-562 leukemia = tested on: K-562 leukemia
TK-10 renal = tested on: TK-10 renal
RXF 393 renal = tested on: RXF 393 renal
LOX IMVI melanoma = tested on: LOX IMVI melanoma
EKVX NSCLC = tested on: EKVX NSCLC
786-0 renal = tested on: 786-0 renal
SF-295 CNS = tested on: SF-295 CNS
UACC-257 melanoma = tested on: UACC-257 melanoma
MALME-3M melanoma = tested on: MALME-3M melanoma
CCRF-CEM leukemia = tested on: CCRF-CEM leukemia
SF-539 CNS = tested on: SF-539 CNS
SK-MEL-2 melanoma = tested on: SK-MEL-2 melanoma
MDA-MB-435 = tested on: MDA-MB-435
M14 melanoma = tested on: M14 melanoma
NCI-H226 lung = tested on: NCI-H226 lung
HT29 colon = tested on: HT29 colon
SK-MEL-5 melanoma = tested on: SK-MEL-5 melanoma
U251 CNS = tested on: U251 CNS
SK-OV-3 ovarian = tested on: SK-OV-3 ovarian
HCT-116 colon = tested on: HCT-116 colon

`Cn1cc(-c2ccc3occ(-c4cccc(-c5ccncc5)c4)c3n2)cn1` showed a GI50 (A549 NSCLC) of 714 nM, a TGI (A549 NSCLC) greater than 100000 nM and a GI50 (SNB-75 CNS) of 404 nM. The TGI (SNB-75 CNS) was 13400 nM, the GI50 (PC-3 prostate) was 961 nM and the TGI (PC-3 prostate) was greater than 100000 nM. The GI50 (UACC-62 melanoma) was 478 nM, the TGI (UACC-62 melanoma) was greater than 100000 nM and the GI50 (OVCAR-5 ovarian) was 3960 nM. It also gave a TGI (OVCAR-5 ovarian) greater than 100000 nM, a GI50 (CAKI-1 renal) of 380 nM and a TGI (CAKI-1 renal) greater than 100000 nM. It also gave a GI50 (SN12C renal) of 1320 nM, a TGI (SN12C renal) greater than 100000 nM and a GI50 (KM12 colon) of 358 nM. It also gave a TGI (KM12 colon) greater than 100000 nM, a GI50 (HS 578T breast) of 377 nM and a TGI (HS 578T breast) of 6180 nM. The GI50 (MOLT-4 leukemia) was 582 nM, the TGI (MOLT-4 leukemia) was greater than 100000 nM and the GI50 (NCI-H522 lung) was 594 nM. It also gave a TGI (NCI-H522 lung) of 12100 nM, a GI50 (IGROV1 ovarian) of 592 nM and a TGI (IGROV1 ovarian) greater than 100000 nM. The GI50 (HOP-92 NSCLC) was 2760 nM, the TGI (HOP-92 NSCLC) was greater than 100000 nM and the GI50 (OVCAR-8 ovarian) was 1310 nM. For the same molecule, the TGI (OVCAR-8 ovarian) was greater than 100000 nM, the GI50 (DU-145 prostate) was 2650 nM and the TGI (DU-145 prostate) was greater than 100000 nM. For the same molecule, the GI50 (SW-620 colon) was 435 nM, the TGI (SW-620 colon) was greater than 100000 nM and the GI50 (BT-549 breast) was 1220 nM. The TGI (BT-549 breast) was 17100 nM, the GI50 (OVCAR-4 ovarian) was 2700 nM and the TGI (OVCAR-4 ovarian) was greater than 100000 nM. It also gave a GI50 (MCF7 breast) of 419 nM, a TGI (MCF7 breast) greater than 100000 nM and a GI50 (OVCAR-3 ovarian) of 479 nM. The TGI (OVCAR-3 ovarian) was greater than 100000 nM, the GI50 (SF-268 CNS) was 1460 nM and the TGI (SF-268 CNS) was greater than 100000 nM. The GI50 (COLO 205 colon) was 546 nM, the TGI (COLO 205 colon) was greater than 100000 nM and the GI50 (HCT-15 colon) was 285 nM. For the same molecule, the TGI (HCT-15 colon) was greater than 100000 nM, the GI50 (A498 renal) was 159 nM and the TGI (A498 renal) was 832 nM. It also gave a GI50 (SNB-19 CNS) of 1210 nM, a TGI (SNB-19 CNS) greater than 100000 nM and a GI50 (ACHN renal) of 800 nM. The TGI (ACHN renal) was greater than 100000 nM, the GI50 (NCI-H23 lung) was 1260 nM and the TGI (NCI-H23 lung) was greater than 100000 nM. The GI50 (NCI-H460 lung) was 381 nM, the TGI (NCI-H460 lung) was greater than 100000 nM and the GI50 (HCC-2998 colon) was 1740 nM. The TGI (HCC-2998 colon) was greater than 100000 nM, the GI50 (SR leukemia) was 230 nM and the TGI (SR leukemia) was greater than 100000 nM. The GI50 (UO-31 renal) was 1460 nM, the TGI (UO-31 renal) was greater than 100000 nM and the GI50 (SK-MEL-28 melanoma) was 1770 nM. For the same molecule, the TGI (SK-MEL-28 melanoma) was greater than 100000 nM, the GI50 (MDA-MB-231 breast) was 1620 nM and the TGI (MDA-MB-231 breast) was greater than 100000 nM. It also gave a GI50 (NCI/ADR-RES ovarian) of 368 nM, a TGI (NCI/ADR-RES ovarian) greater than 100000 nM and a GI50 (HOP-62 NSCLC) of 815 nM. The TGI (HOP-62 NSCLC) was greater than 100000 nM, the GI50 (K-562 leukemia) was 284 nM and the TGI (K-562 leukemia) was greater than 100000 nM. It also gave a GI50 (TK-10 renal) of 2100 nM, a TGI (TK-10 renal) greater than 100000 nM and a GI50 (RXF 393 renal) of 661 nM. For the same molecule, the TGI (RXF 393 renal) was 4440 nM, the GI50 (LOX IMVI melanoma) was 564 nM and the TGI (LOX IMVI melanoma) was greater than 100000 nM. It also gave a GI50 (EKVX NSCLC) of 1250 nM, a TGI (EKVX NSCLC) greater than 100000 nM and a GI50 (786-0 renal) of 1250 nM. For the same molecule, the TGI (786-0 renal) was greater than 100000 nM, the GI50 (SF-295 CNS) was 809 nM and the TGI (SF-295 CNS) was greater than 100000 nM. For the same molecule, the GI50 (UACC-257 melanoma) was 2600 nM, the TGI (UACC-257 melanoma) was greater than 100000 nM and the GI50 (MALME-3M melanoma) was 1190 nM. The TGI (MALME-3M melanoma) was greater than 100000 nM, the GI50 (CCRF-CEM leukemia) was 923 nM and the TGI (CCRF-CEM leukemia) was greater than 100000 nM. It also gave a GI50 (SF-539 CNS) of 734 nM, a TGI (SF-539 CNS) of 5540 nM and a GI50 (SK-MEL-2 melanoma) of 758 nM. The TGI (SK-MEL-2 melanoma) was greater than 100000 nM, the GI50 (MDA-MB-435) was 176 nM and the TGI (MDA-MB-435) was 525 nM. For the same molecule, the GI50 (M14 melanoma) was 457 nM, the TGI (M14 melanoma) was greater than 100000 nM and the GI50 (NCI-H226 lung) was 1500 nM. For the same molecule, the TGI (NCI-H226 lung) was greater than 100000 nM, the GI50 (HT29 colon) was 356 nM and the TGI (HT29 colon) was greater than 100000 nM. For the same molecule, the GI50 (SK-MEL-5 melanoma) was 406 nM, the TGI (SK-MEL-5 melanoma) was 1630 nM and the GI50 (U251 CNS) was 601 nM. For the same molecule, the TGI (U251 CNS) was greater than 100000 nM, the GI50 (SK-OV-3 ovarian) was 1820 nM and the TGI (SK-OV-3 ovarian) was greater than 100000 nM. For the same molecule, the GI50 (HCT-116 colon) was 382 nM and the TGI (HCT-116 colon) was greater than 100000 nM.
